According to patent US9499509B2, “Dihydrochalcone derivatives and their use as antibiotic agents” (UNIVERSITÉ DU QUÉBEC À CHICOUTIMI, priority 2012, dated 2016):
Converted amounts (≈) assume the structure as drawn. Structures can show the parent of a compound that is named as a salt. Where two headings read alike, the source gives them in different places.

Assays:
[1] = system: Streptococcus pneumoniae; experiment: Antibiotic assay (resazurin, Example 1), Streptococcus pneumoniae; format: cell-based
Experimental: (§1) Bacteria Strain. […] The MRSA were obtained as further described below.
(§2) Antibiotic agents. Cyprofloxacin and erythromycin were provided by Sigma-Aldrich. Gentamicin sulfate and vancomycin hydrochloride were provided by Calbiochem.
(§3) Five additional strains were tested: Streptococcus pneumoniae, Streptococcus agalactiae, Streptococcus pyogenes, Enterococcus faecalis and Corynebacterium jeikeium.

[2] = system: Corynebacterium jeikeium; experiment: Antibiotic assay (resazurin, Example 1), Corynebacterium jeikeium; format: cell-based; conditions: for MIC: read-out: Minimum Inhibitory Concentration (MIC)
Experimental: as §1, §2, §3

[3] = Strep. pneumoniae 14070, read-out: IC50
[4] = Strep. pneumoniae 14112, read-out: IC50
[5] = Strep. pneumoniae 14138, read-out: IC50
[6] = Strep. pneumoniae 14144, read-out: IC50
[7] = Strep. pneumoniae 14148, read-out: IC50
[8] = Coryne. jeikeium 14139, read-out: IC50

SMILES	activity against Streptococcus pneumoniae strain 14144 ([1]; in words)	Minimum Inhibitory Concentration (MIC) ([1]; Strep. pneumoniae 14070)	IC50 [1, 3] [µM]	Minimum Inhibitory Concentration (MIC) ([1]; Strep. pneumoniae 14112)	IC50 [1, 4] [µM]	Minimum Inhibitory Concentration (MIC) ([1]; Strep. pneumoniae 14138)	IC50 [1, 5] [µM]	Minimum Inhibitory Concentration (MIC) ([1]; Strep. pneumoniae 14144)	IC50 [1, 6] [µM]	Minimum Inhibitory Concentration (MIC) ([1]; Strep. pneumoniae 14148)	IC50 [1, 7] [µM]	activity against Streptococcus pneumoniae 14070 strain ([1]; in words)	Minimum Inhibitory Concentration (MIC) ([2]; Coryne. jeikeium 14139)	IC50 [2, 8] [µM]	activity against Streptococcus pneumoniae strain 14138 ([1]; in words)	other results
O=C(O)c1cn(C2CC2)c2cc(N3CCNCC3)c(F)cc2c1=O [Ciprofloxacin, reference compound]	not active															IC50 ([1]; Streptococcus pneumoniae, Strep. pneumoniae 14070, read-out: IC50): > 200 µM; MIC ([1]; Streptococcus pneumoniae, Strep. pneumoniae 14070, read-out: Minimum Inhibitory Concentration (MIC)): > 200 µM; IC50 ([1]; Streptococcus pneumoniae, Strep. pneumoniae 14112, read-out: IC50): 63 ± 6 µM; MIC ([1]; Streptococcus pneumoniae, Strep. pneumoniae 14112, read-out: Minimum Inhibitory Concentration (MIC)): 200 µM (≈ 66.3 µg/mL); IC50 ([1]; Streptococcus pneumoniae, Strep. pneumoniae 14138, read-out: IC50): > 200 µM; MIC ([1]; Streptococcus pneumoniae, Strep. pneumoniae 14138, read-out: Minimum Inhibitory Concentration (MIC)): > 200 µM; IC50 ([1]; Streptococcus pneumoniae, Strep. pneumoniae 14144, read-out: IC50): > 200 µM; MIC ([1]; Streptococcus pneumoniae, Strep. pneumoniae 14144, read-out: Minimum Inhibitory Concentration (MIC)): > 200 µM; IC50 ([1]; Streptococcus pneumoniae, Strep. pneumoniae 14148, read-out: IC50): 56 ± 6 µM; MIC ([1]; Streptococcus pneumoniae, Strep. pneumoniae 14148, read-out: Minimum Inhibitory Concentration (MIC)): 200 µM (≈ 66.3 µg/mL); IC50 ([2]; Corynebacterium jeikeium, Coryne. jeikeium 14139, read-out: IC50): 1.42 ± 0.07 µM; MIC ([2]; Corynebacterium jeikeium, Coryne. jeikeium 14139): 16.4 µM (≈ 5.43 µg/mL)
O=C(CCc1ccccc1)c1c(O)cc(O)c(C/C=C/c2ccc(O)cc2)c1O [Compound III]	not active	(>200) μM	124 ± 5	(190) μM	89 ± 5	(>200) μM	> 200	(>200) μM	> 200	(200) μM	93 ± 7	active	(200) μM	9 ± 2		
COc1ccc(CCC(=O)c2c(O)cc(O)c(C/C=C/c3ccc(O)cc3)c2O)cc1 [Compound II]	not active	(122) μM	54 ± 4	(169) μM	74 ± 6	(>200) μM	> 200	(>200) μM	> 200	(200) μM	83 ± 7	active	(112) μM			
COc1cc(O)c(C(=O)CCc2ccc(O)cc2)c(O)c1C/C=C/c1ccc(O)cc1 [Compound I]	not active	(74.1) μM	29 ± 5	(66.2) μM	29 ± 3	(>200) μM	142 ± 12	(>200) μM	> 200	(81.2) μM	40 ± 4	active	(67.5) μM	14 ± 3	had an activity	activity against Streptococcus pneumoniae strain 14112 ([1]; in words): active; activity against Streptococcus pneumoniae strain 14148 ([1]; in words): active
CN[C@H](CC(C)C)C(=O)N[C@H]1C(=O)N[C@@H](CC(N)=O)C(=O)N[C@H]2C(=O)N[C@H]3C(=O)N[C@H](C(=O)N[C@H](C(=O)O)c4cc(O)cc(O)c4-c4cc3ccc4O)[C@H](O)c3ccc(c(Cl)c3)Oc3cc2cc(c3O[C@@H]2O[C@H](CO)[C@@H](O)[C@H](O)[C@H]2O[C@H]2C[C@](C)(N)[C@H](O)[C@H](C)O2)Oc2ccc(cc2Cl)[C@H]1O [Vancomycin, vancomycin hydrochloride, reference compound]															had an activity	IC50 ([1]; Streptococcus pneumoniae, Strep. pneumoniae 14070): 0.09 ± 0.04 µM; IC50 ([1]; Streptococcus pneumoniae, Strep. pneumoniae 14112): 0.094 ± 0.008 µM; IC50 ([1]; Streptococcus pneumoniae, Strep. pneumoniae 14138): 0.13 ± 0.08 µM; IC50 ([1]; Streptococcus pneumoniae, Strep. pneumoniae 14144): > 10 µM; IC50 ([1]; Streptococcus pneumoniae, Strep. pneumoniae 14148): 0.084 ± 0.006 µM; MIC ([1]; Streptococcus pneumoniae, read-out: Minimum Inhibitory Concentration (MIC), Strep. pneumoniae 14070): 8.37 µM; MIC ([1]; Streptococcus pneumoniae, read-out: Minimum Inhibitory Concentration (MIC), Strep. pneumoniae 14112): 0.16 µM; MIC ([1]; Streptococcus pneumoniae, read-out: Minimum Inhibitory Concentration (MIC), Strep. pneumoniae 14138): > 10 µM; MIC ([1]; Streptococcus pneumoniae, read-out: Minimum Inhibitory Concentration (MIC), Strep. pneumoniae 14144): > 10 µM; MIC ([1]; Streptococcus pneumoniae, read-out: Minimum Inhibitory Concentration (MIC), Strep. pneumoniae 14148): 0.2 µM; IC50 ([2]; Corynebacterium jeikeium): 0.22 ± 0.03 µM; MIC ([2]; Corynebacterium jeikeium): 0.35 µM
